89 compounds from a melting point compilation (Tetko et al.; mined from patent text by program, amines drawn as free bases though some values may be those of a salt) can be followed below.

Broadly, the melting point is the temperature, or range, at which the solid turns liquid.

In the case of `O=S(=O)(Nc1ccc(Cl)cc1)C(Cl)=C(Cl)Cl`, the melting point is 73 to 76 °C.
Regarding `COC(=O)c1ccc(Cn2c(=O)c3cc(C(=O)NCc4cccc(OC)c4)sc3n(C)c2=O)cc1C`, the melting point lay in the range of 175 to 177 °C.
Turning to `C=C(C)Cn1c(N)c(N)c(=O)n(C)c1=O`, the melting point lay within 152 to 153 °C.
Turning to `CCOc1ccc(-c2nc(-c3cc(CNC)c(O)c(C(=O)O)c3)cs2)cc1OCC`, the melting point lay in the range of 271 to 273 °C.
`CCCc1cc(=O)oc2cc(O)ccc12` returned a melting point of 135 to 137 °C.
In turn, `Cn1cc(Br)nc(Nc2ccc(C(=O)N3CCOCC3)cc2)c1=O` showed a melting point of 276 to 277 °C.
`CC(=O)Nc1ccc2nc3ccccc3c(-c3cc(C)ccc3C)c2c1` came in with a melting point of 236 to 238 °C.
Turning to `CC1(C)OC(=O)Nc2ccc(-c3cc(Br)cc(OC(F)(F)F)c3)cc21`, the melting point lay within 214 to 216 °C.
`CCSCCCNc1c(S(=O)(=O)C(F)(F)F)c(C#N)nn1-c1c(Cl)cc(C(F)(F)F)cc1Cl` came in with a melting point of 80 °C.
As for `CN(C)CC(Cc1ccccc1)NC(=O)c1ccccc1` (centres undefined), the figure is 110 °C; as for `CC(C)c1ccc(-c2nc(=O)n(Cc3ccccc3)c3ccc(O)cc23)cc1`, more than 270 °C.
As to `COc1cccc(CN2CCc3cc(O)c(OC)cc3C2C)c1` (centres undefined), the melting point lay in the range of 97 to 99 °C.
As to `CNc1nc(C)ccc1C(=O)OCC#N`, the melting point fell in the range of 154 to 157 °C.
`O=CNc1ccsc1I`: the melting point was 100 to 107 °C.
Turning to `COC(=O)C1=C(C)OC(C)=C(C(=O)OC)C1c1ccccc1`, the melting point came out at 62.5 °C.
In the case of `C=Cc1cc(C2=NCCO2)ccc1OCCCCCc1cc(C)no1`, the melting point fell in the range of 116 to 117 °C.
As for `Cc1cn(C2(C(=O)N(C)C)CCC2)nc1-c1ccccc1`, the figure is 87 to 89 °C; as for `COC(=O)CCCCCCC1C(=O)Cc2cc(OC)ccc21` (centres undefined), 33.5 to 35 °C.
In turn, `CC(C)C(C(=O)O)n1nc(Br)c(Br)c1Br` (centres undefined) came in with a melting point of 92 to 95 °C.
On to `CCCCCCCCCCCCOc1ccc(CO)cc1`, for which the melting point lay in the range of 66.5 to 67 °C.
On to `COC(=O)c1cc(N2CCCC2)c(Oc2ccccc2)c(S(N)(=O)=O)c1`, for which the melting point worked out at 191 °C.
The compound `Cc1onc(-c2ccc(-c3cscn3)cc2)c1-c1ccc(S(N)(=O)=O)cc1` showed a melting point of 112 to 115 °C.
`COC(=O)c1scc(-c2ccccc2)c1-c1ccc(S(=O)(=O)COC(C)=O)c(F)c1` registered a melting point of 165 °C.
In turn, `COC(=O)c1cccc(/C=C/c2cccc(OC)c2)c1` yielded a melting point of 92 to 94 °C.
`CCc1cc(Oc2ncc(C(F)(F)F)cc2Cl)n[nH]1`: the melting point is 55 to 57 °C.
Compound `CCCn1c2c(c3ccccc3c1=O)C(=O)c1ccccc1-2` displayed a melting point of 166 to 167 °C.
`Cc1nc2ccc3c(c2o1)OC(CN1CCCCC1)CO3` (centres undefined) returned a melting point of 109 to 112 °C.
Compound `Cc1ccc(S(=O)(=O)c2ccc3c(c2)c(CCN(C)C(=O)OC(C)(C)C)cn3C)cc1` yielded a melting point of 143 to 145 °C.
The same measure for `Oc1ncn(-c2ccccc2)n1`: 281 to 282 °C; for `CCc1noc(-c2cn(-c3ccccc3OCCc3ccccc3)cn2)n1`: 61 °C.
`COc1cc(N)c(Cl)cc1C(=O)NCC1CCN(CCCCC(=O)c2ccc(O)cc2)CC1` showed a melting point of 154 to 156 °C.
`CN(c1cccc2cc(C3=NCC(CC(=O)N4CCS(=O)(=O)CC4)S3)[nH]c12)S(=O)(=O)c1cccs1` (centres undefined) yielded a melting point of 158 °C.
In the case of `CN(C)S(=O)(=O)CS(=O)(=O)c1ccccc1`, the melting point fell in the range of 102 to 103 °C.
`COc1cccc(-c2[nH]c(-c3ccc(N)cc3)nc2C(=O)Nc2nccs2)c1` showed a melting point of 262 to 263 °C.
The compound `O=C1OC(=O)c2cc3c(cc21)CCOC3` registered a melting point of 156 to 158 °C.
`c1ccc(C2(c3ccccc3)SCCS2)cc1` displayed a melting point of 104 to 105 °C.
Take `CCC(Oc1ccc(CCC(=O)c2ccc(-c3ccc(C(F)(F)F)cc3)s2)cc1)C(=O)O` (centres undefined): the melting point lay within 116 to 117 °C.
As for `CCN(CC)C(=O)c1ccc2ccccc2c1-c1ccc(OC)cc1`, the melting point is 114 to 116 °C.
Turning to `Cc1c(-c2cccnc2)n(CCOc2ccc(C(=O)O)cc2)c2ccccc12`, the melting point lay in the range of 190 to 193 °C.
Compound `O=C(Nc1cccc2ccccc12)c1ccn2c1CSC2c1cccnc1` (centres undefined) came in with a melting point of 136 °C.
For `COC1=C(OC)C(=O)C2=C(CCC(CCOc3ccc(F)cc3)CC2)C1=O`, the melting point is 91 to 93 °C.
Consider `COc1cc(C(=O)NC=NC(=O)ON(c2ccc(C)c(NC(=O)c3ccc(OCc4ccccc4)cc3)c2)C(C)(C)C)cc(OC)c1OC`, for which the melting point came to 94 °C.
Compound `O=C1NC(=O)C(Cc2ccc(OCCC3OCCO3)cc2)S1` (centres undefined) returned a melting point of 102 to 104 °C.
As for `Cn1cc(-c2cccc(Br)c2)c(=O)c(-c2cccc(Br)c2)c1`, the figure is 216 °C.
In turn, `O=C1CC(c2ccccc2)c2cc(C(c3ccc(Cl)cc3)n3ccnc3)ccc2N1` (centres undefined) returned a melting point of 225 °C.
Consider `CC(Cl)(Cl)C(NC(=O)c1cccc(Cl)c1)NC(=NC#N)Nc1ccc(Cl)nc1` (centres undefined), for which the melting point lay within 138 to 140 °C.
`COc1cncnc1N1CCN(CCCc2c[nH]c3ccc(N(C)S(=O)(=O)C(F)(F)F)cc23)CC1` had a melting point of more than 230 °C.
Turning to `CCCc1ncc(C=CC=CC(=O)OCC)s1`, the melting point is 52 °C.
As for `CCOC(=O)C(Cc1cc2ccccc2[nH]c1=O)NC(=O)c1ccc(OC)cc1` (centres undefined), the melting point was in the range of 206 to 208 °C.
In turn, `COc1cc(OC)c2c(=O)[nH]c(-c3cc(C)c(OCCN4CCN(C)CC4)c(C)c3)nc2c1` yielded a melting point of 180 to 182 °C.
Turning to `Cc1noc(C)c1-c1ccccc1OC1SCC(O)C(O)C1O` (centres undefined), the melting point is 110 to 117 °C.
As for `O=S(=O)(CCCl)c1ccc(O)cc1`, the melting point is 72.5 to 73.5 °C.
`COc1ccc(C(O)COc2ccc(C(=O)O)c(O)c2)cc1C(C)(C)C` (centres undefined): the melting point was 149 to 150 °C.
`CCOC(=O)CC(=O)c1cc(Oc2ccccc2)c(NS(C)(=O)=O)cc1O` displayed a melting point of 112 °C.
`CC(=O)Oc1c2ccc(C(F)(F)F)cc2c(OC(C)=O)c2cc3ccccc3cc12` registered a melting point of 285 to 288 °C.
`COc1ccc2c(cc3n2CCc2ccccc2-3)n1`: the melting point lay within 179 to 180 °C.
Compound `Oc1ccc(Nn2cccc2)c2ccccc12` yielded a melting point of 83 to 84 °C.
Consider `CCCc1nc2c(N)nc3ccccc3c2n1CC1(O)CCCCC1`, for which the melting point lay within 250 to 252 °C.
The same measure for `CSc1ccc(C2=C(c3ccc(F)cc3)C(=O)OC2)c(F)c1`: 118 to 122 °C; for `Fc1ccc(Cn2c(NC3CCN(CCn4c(=S)[nH]c5ccccc54)CC3)nc3ccccc32)cc1`: 235 °C; for `CCOC(=O)c1cn(Cc2ccccc2)nc1OCc1ccc(OCc2nc(-c3ccco3)oc2C)c(CC)c1`: 125 to 126 °C.
`CN1C(=O)C(c2ccc(OC(F)F)cc2)(c2cccc(CCCC(F)F)c2)N=C1N` (centres undefined) came in with a melting point of 54 to 57 °C.
`Cc1cnc2c(c1)cc1c3c(cc([N+](=O)[O-])cc32)C(=O)OC1=O` yielded a melting point of 261 to 262 °C.
As for `COC(=O)CN(C(=O)OC)C1CN(C(=O)Nc2ccc(C(F)(F)F)cc2)N=C1c1ccc(Cl)cc1` (centres undefined), the figure is 198 to 200 °C.
Consider `O=C(N[C@H](Cc1ccc(F)cc1)[C@@H](O)c1ccc(C(F)(F)F)cc1)c1cccc2ccccc12` (racemic), for which the melting point lay in the range of 207 to 208 °C.
Turning to `CCCOc1ccc(C(=O)Nc2ccccc2NC(=O)c2ccc(OCCC)cc2)cc1`, the melting point amounted to 195 °C.
For `CN(C)CCNNc1ccc(CO)c2oc3ccc(O)cc3c(=O)c12`, the melting point fell in the range of 122 to 123 °C.
On to `CC(=O)N[C@@H](CSC(=O)c1ccccc1)C(=O)NCCSC(=O)C(C)(C)C`, for which the melting point lay within 133 to 134 °C.
With `CN(C)c1nn(-c2c(Cl)cc(C(F)(F)F)cc2Cl)c(=O)n1C`, the melting point is 105 to 107 °C.
On to `CCc1ncnc(NC(CO)CO)c1Cl`, for which the melting point is 104 to 105 °C.
`CC(C)(C)OC(=O)C(C1NC(C(=O)OCc2ccccc2)C2(CCN(c3ccccc3)CC2)S1)N1C(=O)c2ccccc2C1=O` (centres undefined) registered a melting point of 184 to 185 °C.
As for `CSc1ccc(-c2nc3[nH]nc(N)c3c(=O)n2-c2ccc(C)cc2)cc1`, the figure is more than 285 °C; as for `CN1CCN(CCCCC(=O)N2c3ccccc3C(=O)Nc3cccnc32)CC1`, 151 to 153 °C; as for `CN1CCN(C(=O)CCOC2c3ccccc3C(=O)N2c2ccc3ccc(Cl)nc3n2)CC1` (centres undefined), 150 °C.
As for `Nc1nc(-c2cc(Cl)ccc2Cl)nc(N2CC(O)C2)n1`, the figure is 256 to 257 °C; as for `CCC1=C(O)C(=O)CC1`, 39 to 41 °C; as for `Cc1cc(CCC2CCC(COc3ccc(C4=NCCO4)cc3)CC2)on1` (centres undefined), 48 to 50 °C.
In turn, `ClCc1ccnc(OCc2cn3c(Cl)cccc3n2)c1` returned a melting point of 118 to 119 °C.
In the case of `COCOc1ccc(C=O)c2cccc(C)c12`, the melting point was in the range of 42 to 43 °C.
In turn, `COC(=O)c1cc(Cl)c(Cl)c(C2=NOCC2)c1C` had a melting point of 74 to 76 °C.
`CCOc1ccc(-c2nc(-c3cc(C=CC(=O)O)c(O)c(C(=O)O)c3)cs2)cc1OCC` displayed a melting point of 260 to 261 °C.
`CS(=O)(=O)c1c(C(=O)O)ccc(F)c1F` displayed a melting point of 194 °C.
In turn, `CC(C)(Oc1ccc2c(c1)CC(NCc1ccccc1)CC2)C(=O)O` (centres undefined) returned a melting point of 240 to 242 °C.
On to `CC(C)(C)OC(=O)N1CCC(NC(=O)c2ccc(Cn3cccn3)cc2)CC1`, for which the melting point is 168 to 169 °C.
The same measure for `COC(=O)c1ccccc1-c1cc(-c2ccc(Cl)cc2Cl)no1`: 94 to 96 °C.
In the case of `CCOCc1nc2cnc3ccc(OCc4ccccc4)cc3c2n1CC(C)(C)O`, the melting point was in the range of 138 to 140 °C.
The compound `ClCCCOc1ccc(SCCCCl)cc1` came in with a melting point of 112 °C.
As for `O=C1NCN(c2ccc(F)c(Cl)c2)C12CCN(C1CCC(c3ccc(F)cc3)(c3ccc(F)cc3)CC1)CC2`, the figure is 201 to 203 °C.
The same measure for `CS(=O)(=O)c1ccc(-c2cnn(Cc3cc4ccccc4s3)c(=O)c2-c2ccc(F)cc2)cc1`: 93 to 96 °C.
